Test results reported in patent US20260285850A1, “SUBSTITUTED OXAZOLIDINONES AND IMIDAZOLINONES AS HERBICIDES” (FMC CORPORATION, priority 2023, published 2026).

Assays:
Type in all cases: in vivo
[1] = test system: barnyardgrass (Echinochloa crus-galli); assay: Test A preemergence soil spray, visual injury rating 0-100; details: 10 days
Outline: (§1)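 Grow plants in loam soil blended with sand. Apply formulated compound (non-phytotoxic solvent, surfactant) as a directed soil spray before emergence, or to plants at the one- to two-leaf stage after emergence. Hold in greenhouse 10 days, then rate injury visually versus untreated controls on a 0-100 scale.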

[2] = test system: blackgrass (Alopecurus myosuroides); assay: as above; details: 10 days
Outline: as §1

corn (Zea mays) [3] = assay: as above; details: 10 days
Outline: as §1

[4] = test system: green foxtail (Setaria viridis); assay: as above; details: 10 days
Outline: as §1

kochia (Bassia scoparia) [5] = assay: as above; details: 10 days
Outline: as §1

[6] = test system: oat, wild (wild oat, Avena fatua); assay: as above; details: 10 days
Outline: as §1

[7] = test system: palmer (palmer amaranth, palmer pigweed, Amaranthus palmeri); assay: as above; details: 10 days
Outline: as §1

[8] = test system: ragweed (common ragweed, Ambrosia artemisiifolia); assay: as above; details: 10 days
Outline: as §1

[9] = test system: ryegrass, Italian (italian ryegrass, Lolium multiflorum); assay: as above; details: 10 days
Outline: as §1

soybean (Glycine max) [10] = assay: as above; details: 10 days
Outline: as §1

[11] = test system: wheat (Triticum aestivum); assay: as above; details: 10 days
Outline: as §1

[12] = test system: barnyardgrass (Echinochloa crus-galli); assay: Test A postemergence application, visual injury rating 0-100
Outline: as §1

[13] = test system: blackgrass (Alopecurus myosuroides); assay: as above
Outline: as §1

corn (Zea mays) [14] = assay: as above
Outline: as §1

[15] = test system: galium (catchweed bedstraw, Galium aparine); assay: as above
Outline: as §1

[16] = test system: green foxtail (Setaria viridis); assay: as above
Outline: as §1

[17] = test system: horseweed (Erigeron canadensis); assay: as above
Outline: as §1

kochia (Bassia scoparia) [18] = assay: as above
Outline: as §1

[19] = test system: oat, wild (wild oat, Avena fatua); assay: as above
Outline: as §1

[20] = test system: palmer (palmer amaranth, palmer pigweed, Amaranthus palmeri); assay: as above
Outline: as §1

[21] = test system: ragweed (common ragweed, Ambrosia artemisiifolia); assay: as above
Outline: as §1

[22] = test system: ryegrass, Italian (italian ryegrass, Lolium multiflorum); assay: as above
Outline: as §1

soybean (Glycine max) [23] = assay: as above
Outline: as §1

[24] = test system: wheat (Triticum aestivum); assay: as above
Outline: as §1

[25] = test system: barnyardgrass (Echinochloa crusgalli); assay: Test B flooded paddy test, visual plant response rating 0-100; details: 250 g ai/ha, Flood, applied to paddy water, evaluated after 13 days
Outline: (§2)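 Paddy-water application: test compounds went directly into water flooded 3 cm above the soil surface, with plants at 2 leaves. After a 13-day greenhouse period, responses were judged by eye relative to controls; a dash marks an untested entry.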

[26] = test system: ducksalad (Heteranthera limosa); assay: as above; details: 250 g ai/ha, Flood, applied to paddy water, evaluated after 13 days
Outline: as §2

rice (Oryza sativa) = assay: as above; details: 250 g ai/ha, Flood, applied to paddy water, evaluated after 13 days
Outline: as §2

[27] = test system: sedge, umbrella (small-flower umbrella sedge, Cyperus difformis); assay: as above; details: 250 g ai/ha, Flood, applied to paddy water, evaluated after 13 days
Outline: as §2

[28] = 62 g ai/ha, 0 = no effect, 100 = complete control
[29] = 62 g ai/ha, postemergence, 10 days, 0 = no effect, 100 = complete control
[30] = Postemergence, 16 g ai/ha, greenhouse 10 days, 0 no effect, 100 complete control

SMILES: CSCCOC(=O)C1CC(NC(=O)C2(C)CN(c3cc(F)cc(F)c3)C(=O)O2)C1 (racemic) [Compound 120]
- Barnyardgrass plant response rating ([1]; 16 g ai/ha, 0 to 100 scale): 0
- Barnyardgrass plant response rating (0-100) [1, 28]: 60
- Blackgrass plant response rating ([2]; 16 g ai/ha, 0 to 100 scale): 40
- Blackgrass plant response rating (0-100) [2, 28]: 80
- Corn plant response rating (corn (Zea mays) [3]; 16 g ai/ha, 0 to 100 scale): 0
- Corn plant response rating (0-100) (corn (Zea mays) [3]; [28]): 80
- Foxtail, Green plant response rating ([4]; 16 g ai/ha, 0 to 100 scale): 20
- Foxtail, Green plant response rating (0-100) [4, 28]: 20
- Kochia plant response rating (kochia (Bassia scoparia) [5]; 16 g ai/ha, 0 to 100 scale): 0
- Kochia plant response rating (0-100) (kochia (Bassia scoparia) [5]; [28]): 30
- Oat, Wild plant response rating ([6]; 16 g ai/ha, 0 to 100 scale): 90
- Oat, Wild plant response rating (0-100) [6, 28]: 90
- Pigweed, Palmer plant response rating ([7]; 16 g ai/ha, 0 to 100 scale): 0
- Pigweed, Palmer plant response rating (0-100) [7, 28]: 20
- Ragweed plant response rating ([8]; 16 g ai/ha, 0 to 100 scale): 10
- Ragweed plant response rating (0-100) [8, 28]: 0
- Ryegrass, Italian plant response rating ([9]; 16 g ai/ha, 0 to 100 scale): 10
- Ryegrass, Italian plant response rating (0-100) [9, 28]: 80
- Soybean plant response rating (soybean (Glycine max) [10]; 16 g ai/ha, 0 to 100 scale): 0
- Soybean plant response rating (0-100) (soybean (Glycine max) [10]; [28]): 0
- Wheat plant response rating ([11]; 16 g ai/ha, 0 to 100 scale): 20
- Wheat plant response rating (0-100) [11, 28]: 70
- Barnyardgrass plant response rating (0-100) [12, 29]: 100
- Barnyardgrass plant response rating (0 to 100 scale) [12, 30]: 50
- Blackgrass plant response rating (0-100) [13, 29]: 90
- Blackgrass plant response rating (0 to 100 scale) [13, 30]: 70
- Corn plant response rating (0-100) (corn (Zea mays) [14]; [29]): 100
- Corn plant response rating (0 to 100 scale) (corn (Zea mays) [14]; [30]): 90
- Galium plant response rating (0-100) [15, 29]: 70
- Galium plant response rating (0 to 100 scale) [15, 30]: 20
- Foxtail, Green plant response rating (0-100) [16, 29]: 90
- Foxtail, Green plant response rating (0 to 100 scale) [16, 30]: 60
- Horseweed plant response rating (0-100) [17, 29]: 10
- Horseweed plant response rating (0 to 100 scale) [17, 30]: 10
- Kochia plant response rating (0-100) (kochia (Bassia scoparia) [18]; [29]): 80
- Kochia plant response rating (0 to 100 scale) (kochia (Bassia scoparia) [18]; [30]): 0
- Oat, Wild plant response rating (0-100) [19, 29]: 80
- Oat, Wild plant response rating (0 to 100 scale) [19, 30]: 30
- Pigweed, Palmer plant response rating (0-100) [20, 29]: 70
- Pigweed, Palmer plant response rating (0 to 100 scale) [20, 30]: 10
- Ragweed plant response rating (0-100) [21, 29]: 40
- Ragweed plant response rating (0 to 100 scale) [21, 30]: 20
- Ryegrass, Italian plant response rating (0-100) [22, 29]: 70
- Ryegrass, Italian plant response rating (0 to 100 scale) [22, 30]: 10
- Soybean plant response rating (0-100) (soybean (Glycine max) [23]; [29]): 80
- Soybean plant response rating (0 to 100 scale) (soybean (Glycine max) [23]; [30]): 50
- Wheat plant response rating (0-100) [24, 29]: 90
- Wheat plant response rating (0 to 100 scale) [24, 30]: 90
- Plant response rating, Barnyardgrass (0 to 100 scale, 0 is no effect and 100 is complete control) [25]: 0
- Plant response rating, Ducksalad (0 to 100 scale, 0 is no effect and 100 is complete control) [26]: 0
- Plant response rating, Rice (0 to 100 scale, 0 is no effect and 100 is complete control) (rice (Oryza sativa)): 0
- Plant response rating, Sedge, Umbrella (0 to 100 scale, 0 is no effect and 100 is complete control) [27]: 0
